Results on 7 cell lines are retold here after the supplement of paper PMC10307832.

Holding throughout (experiment): relative viability (nuclei count vs DMSO), 5 days (fraction); higher = more cells survive
Compound in assay [1]: C[C@]12O[C@H](C[C@]1(O)CO)n1c3ccccc3c3c4c(c5c6ccccc6n2c5c31)CNC4=O [Lestaurtinib] + CCNC(=O)c1noc(-c2cc(C(C)C)c(O)cc2O)c1-c1ccc(CN2CCOCC2)cc1 [Luminespib] (partner 0.01 µM)
A digest of the protocol:
(§1)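 Five library-drug doses in √10 steps were combined with a fixed anchor-drug dose, or a single drug was given alone, by pin tool to lung cancer cell lines in 1536-well plates the day after seeding. Nuclei were stained and counted after 5 days. Relative viability is the nuclei count in treated wells over that in vehicle wells, taken as the median of duplicate plates.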

Compound in the assay “Lestaurtinib + OSI-027”: C[C@]12O[C@H](C[C@]1(O)CO)n1c3ccccc3c3c4c(c5c6ccccc6n2c5c31)CNC4=O [Lestaurtinib] + COc1cccc2cc(-c3nc([C@H]4CC[C@H](C(=O)O)CC4)n4ncnc(N)c34)[nH]c12 [OSI-027] (partner 0.5 µM)
The essentials:
as §1

Compound in the assay “TPCA-1 + Linsitinib”: C1=CC(=CC=C1C2=CC(=C(S2)NC(=O)N)C(=O)N)F [TPCA-1] + C[C@]1(O)C[C@@H](c2nc(-c3ccc4ccc(-c5ccccc5)nc4c3)c3c(N)nccn32)C1 [Linsitinib] (partner 1 µM)
The essentials:
as §1

Compound in assay [2]: C[C@]12O[C@H](C[C@]1(O)CO)n1c3ccccc3c3c4c(c5c6ccccc6n2c5c31)CNC4=O [Lestaurtinib] + Nc1nc2[nH]cc(CCc3ccc(C(=O)N[C@@H](CCC(=O)O)C(=O)O)cc3)c2c(=O)[nH]1 [Pemetrexed] (partner 0.2 µM)
The essentials:
as §1

On to NCI-H1915, for which the relative viability is 0.766 in assay [1] (first compound 0.005 µM); 0.893 in assay [1] (first compound 0.01581 µM); 0.471 in assay [1] (first compound 0.05 µM); 0.663 in assay [1] (first compound 0.1581 µM); 0.259 in assay [1] (first compound 0.5 µM); 0.687 in the assay with Lestaurtinib + OSI-027 (first compound 0.005 µM). For the same cell line, the relative viability with Lestaurtinib + OSI-027 (first compound 0.01581 µM) was determined as 0.477; with Lestaurtinib + OSI-027 (first compound 0.05 µM) it was 0.42; with Lestaurtinib + OSI-027 (first compound 0.1581 µM), 0.337; with Lestaurtinib + OSI-027 (first compound 0.5 µM) it was 0.246; with TPCA-1 + Linsitinib (first compound 0.04 µM), 1.16; with TPCA-1 + Linsitinib (first compound 0.1265 µM), 1.12. Further, the relative viability was 1.15 with TPCA-1 + Linsitinib (first compound 0.4 µM); 1.04 in the assay with TPCA-1 + Linsitinib (first compound 1.265 µM); 1.03 in the assay with TPCA-1 + Linsitinib (first compound 4 µM); 0.589 in assay [2] (first compound 0.005 µM); 0.432 in assay [2] (first compound 0.01581 µM); 0.458 in assay [2] (first compound 0.05 µM). For the same cell line, the results for the relative viability in assay [2] (first compound 0.1581 µM) and in assay [2] (first compound 0.5 µM) were 0.447 and 0.205, respectively.
Consider NCI-H1944, for which the relative viability in assay [1] (first compound 0.005 µM) worked out at 0.716; in assay [1] (first compound 0.01581 µM) it was 0.784; in assay [1] (first compound 0.05 µM), 0.773; in assay [1] (first compound 0.1581 µM) it was 0.54; in assay [1] (first compound 0.5 µM), 0.302; with Lestaurtinib + OSI-027 (first compound 0.005 µM) it was 0.483. The relative viability with Lestaurtinib + OSI-027 (first compound 0.01581 µM) is 0.406; with Lestaurtinib + OSI-027 (first compound 0.05 µM) it was 0.322; with Lestaurtinib + OSI-027 (first compound 0.1581 µM) it was 0.31; with Lestaurtinib + OSI-027 (first compound 0.5 µM), 0.292; with TPCA-1 + Linsitinib (first compound 0.04 µM) it was 1.24; with TPCA-1 + Linsitinib (first compound 0.1265 µM), 1.13. Also, the relative viability in the assay with TPCA-1 + Linsitinib (first compound 0.4 µM) was determined as 1.2; in the assay with TPCA-1 + Linsitinib (first compound 1.265 µM), 1.13; with TPCA-1 + Linsitinib (first compound 4 µM), 0.987; in assay [2] (first compound 0.005 µM), 0.663; in assay [2] (first compound 0.01581 µM) it was 0.595; in assay [2] (first compound 0.05 µM), 0.492. Further, the relative viability in assay [2] (first compound 0.1581 µM) is 0.409; in assay [2] (first compound 0.5 µM), 0.25.
For NCI-H1975, the relative viability is 0.538 in assay [1] (first compound 0.005 µM); 0.171 in assay [1] (first compound 0.01581 µM); 0.199 in assay [1] (first compound 0.05 µM); 0.137 in assay [1] (first compound 0.1581 µM); 0.159 in assay [1] (first compound 0.5 µM); 0.795 with Lestaurtinib + OSI-027 (first compound 0.005 µM). Also, the relative viability with Lestaurtinib + OSI-027 (first compound 0.01581 µM) came to 0.75; in the assay with Lestaurtinib + OSI-027 (first compound 0.05 µM), 0.534; with Lestaurtinib + OSI-027 (first compound 0.1581 µM) it was 0.412; with Lestaurtinib + OSI-027 (first compound 0.5 µM), 0.347; in the assay with TPCA-1 + Linsitinib (first compound 0.04 µM), 0.93; with TPCA-1 + Linsitinib (first compound 0.1265 µM), 0.916. Also, the relative viability is 0.971 with TPCA-1 + Linsitinib (first compound 0.4 µM); 0.918 in the assay with TPCA-1 + Linsitinib (first compound 1.265 µM); 0.946 with TPCA-1 + Linsitinib (first compound 4 µM); 0.298 in assay [2] (first compound 0.005 µM); 0.295 in assay [2] (first compound 0.01581 µM); 0.292 in assay [2] (first compound 0.05 µM). Further, the results for the relative viability in assay [2] (first compound 0.1581 µM) and in assay [2] (first compound 0.5 µM) were 0.281 and 0.218, respectively.
Regarding NCI-H1993, the relative viability came to 0.692 in assay [1] (first compound 0.005 µM); 0.442 in assay [1] (first compound 0.01581 µM); 0.831 in assay [1] (first compound 0.05 µM); 0.523 in assay [1] (first compound 0.1581 µM); 0.569 in assay [1] (first compound 0.5 µM); 0.59 in the assay with Lestaurtinib + OSI-027 (first compound 0.005 µM). Further, the relative viability was 0.555 with Lestaurtinib + OSI-027 (first compound 0.01581 µM); 0.524 with Lestaurtinib + OSI-027 (first compound 0.05 µM); 0.534 in the assay with Lestaurtinib + OSI-027 (first compound 0.1581 µM); 0.423 in the assay with Lestaurtinib + OSI-027 (first compound 0.5 µM); 0.711 with TPCA-1 + Linsitinib (first compound 0.04 µM); 0.748 with TPCA-1 + Linsitinib (first compound 0.4 µM). The relative viability with TPCA-1 + Linsitinib (first compound 1.265 µM) was 0.686; with TPCA-1 + Linsitinib (first compound 4 µM) it was 0.622; in assay [2] (first compound 0.005 µM) it was 0.581; in assay [2] (first compound 0.01581 µM), 0.657; in assay [2] (first compound 0.05 µM), 0.644; in assay [2] (first compound 0.1581 µM) it was 0.411. In assay [2] (first compound 0.5 µM), the relative viability stood at 0.497.
Regarding NCI-H2009, the relative viability in assay [1] (first compound 0.005 µM) amounted to 1.13; in assay [1] (first compound 0.01581 µM), 1.08; in assay [1] (first compound 0.05 µM) it was 0.993; in assay [1] (first compound 0.1581 µM), 0.858; in assay [1] (first compound 0.5 µM), 0.637; in the assay with Lestaurtinib + OSI-027 (first compound 0.005 µM), 0.578. The relative viability in the assay with Lestaurtinib + OSI-027 (first compound 0.01581 µM) amounted to 0.449; with Lestaurtinib + OSI-027 (first compound 0.05 µM), 0.365; with Lestaurtinib + OSI-027 (first compound 0.1581 µM), 0.441; with Lestaurtinib + OSI-027 (first compound 0.5 µM), 0.24; with TPCA-1 + Linsitinib (first compound 0.04 µM) it was 1.25; with TPCA-1 + Linsitinib (first compound 0.1265 µM), 1.18. Besides, the relative viability came out at 1.11 with TPCA-1 + Linsitinib (first compound 0.4 µM); 1.19 with TPCA-1 + Linsitinib (first compound 1.265 µM); 1.06 with TPCA-1 + Linsitinib (first compound 4 µM); 1.07 in assay [2] (first compound 0.005 µM); 1.06 in assay [2] (first compound 0.01581 µM); 0.998 in assay [2] (first compound 0.05 µM). Besides, the relative viability in assay [2] (first compound 0.1581 µM) amounted to 0.934; in assay [2] (first compound 0.5 µM) it was 0.835.
On to NCI-H2023, for which the relative viability is 0.848 in assay [1] (first compound 0.005 µM); 0.983 in assay [1] (first compound 0.01581 µM); 0.48 in assay [1] (first compound 0.05 µM); 0.524 in assay [1] (first compound 0.1581 µM); 0.119 in assay [1] (first compound 0.5 µM); 0.375 with Lestaurtinib + OSI-027 (first compound 0.005 µM). The relative viability turned out to be 0.407 with Lestaurtinib + OSI-027 (first compound 0.01581 µM); 0.341 in the assay with Lestaurtinib + OSI-027 (first compound 0.05 µM); 0.296 with Lestaurtinib + OSI-027 (first compound 0.1581 µM); 0.104 in the assay with Lestaurtinib + OSI-027 (first compound 0.5 µM); 0.706 with TPCA-1 + Linsitinib (first compound 0.04 µM); 0.721 with TPCA-1 + Linsitinib (first compound 0.1265 µM). In addition, the relative viability with TPCA-1 + Linsitinib (first compound 0.4 µM) was determined as 0.765; in the assay with TPCA-1 + Linsitinib (first compound 1.265 µM), 0.559; in the assay with TPCA-1 + Linsitinib (first compound 4 µM), 0.409; in assay [2] (first compound 0.005 µM) it was 0.292; in assay [2] (first compound 0.01581 µM), 0.285; in assay [2] (first compound 0.05 µM), 0.201. For the same cell line, the relative viability in assay [2] (first compound 0.1581 µM) is 0.153; in assay [2] (first compound 0.5 µM) it was 0.0898.
Turning to NCI-H2085, the relative viability in assay [1] (first compound 0.005 µM) came out at 0.436; in assay [1] (first compound 0.01581 µM), 0.449; in assay [1] (first compound 0.05 µM), 0.57; in assay [1] (first compound 0.1581 µM), 0.41; in assay [1] (first compound 0.5 µM), 0.337; with Lestaurtinib + OSI-027 (first compound 0.005 µM), 0.707. The relative viability stood at 0.822 in the assay with Lestaurtinib + OSI-027 (first compound 0.01581 µM); 0.801 with Lestaurtinib + OSI-027 (first compound 0.05 µM); 0.658 with Lestaurtinib + OSI-027 (first compound 0.1581 µM); 0.521 with Lestaurtinib + OSI-027 (first compound 0.5 µM); 0.901 in the assay with TPCA-1 + Linsitinib (first compound 0.04 µM); 0.859 with TPCA-1 + Linsitinib (first compound 0.1265 µM). Also, the relative viability was found to be 1 in the assay with TPCA-1 + Linsitinib (first compound 0.4 µM); 0.912 in the assay with TPCA-1 + Linsitinib (first compound 1.265 µM); 0.926 with TPCA-1 + Linsitinib (first compound 4 µM); 0.861 in assay [2] (first compound 0.005 µM); 0.877 in assay [2] (first compound 0.01581 µM); 0.915 in assay [2] (first compound 0.05 µM). The relative viability in assay [2] (first compound 0.1581 µM) was 0.858; in assay [2] (first compound 0.5 µM), 0.78.
